Patent publication US7829560B2, “1,4-disubstituted naphthalenes as inhibitors of P38 MAP kinase” (Arqule, Inc., priority 2004, dated 2010)
Read-outs that look alike come from different tables or passages of the source.

Assays:
[1] = biological target: T1, p38α (Homo sapiens, UniProt Q16539); assay: p38 MAP Kinase assay: inhibition of ATF2 phosphorylation, ELISA; assay type: biochemical; settings: for IC50: ATF2 phosphorylation, read-out: [ENZ] P38 ALPHA, IC50, ELISA; for inhibition at 10 µM: substrate ATF2, read-out: [ENZ] P38 ALPHA, PCT INH, ELISA (10 uM;ATF2) (Percent)
T1 construct: p38 MAP Kinases are recombinant human full-length proteins with an amino-terminal GST fusion; GST (N); purchased Upstate Biotechnology Inc; host or cells: E. coli
T1 sequence (Q16539 whole entry, the tested form may be a part): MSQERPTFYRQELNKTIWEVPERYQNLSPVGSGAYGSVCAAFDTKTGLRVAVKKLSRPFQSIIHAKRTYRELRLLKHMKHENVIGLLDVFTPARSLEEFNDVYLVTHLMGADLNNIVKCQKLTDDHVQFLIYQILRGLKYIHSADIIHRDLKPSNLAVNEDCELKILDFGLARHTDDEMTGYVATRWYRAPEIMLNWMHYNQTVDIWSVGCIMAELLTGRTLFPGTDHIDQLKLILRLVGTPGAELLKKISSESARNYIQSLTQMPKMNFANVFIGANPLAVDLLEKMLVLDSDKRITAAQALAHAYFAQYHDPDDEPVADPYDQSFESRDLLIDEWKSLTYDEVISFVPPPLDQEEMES
Summary of the method: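 In vitro phosphorylation of ATF2 at Thr69 by recombinant human GST-p38 MAP kinase, read by anti-phospho-ATF2 ELISA at 450 nm. Enzyme and compound pre-incubated 15 min at RT, then 30 min reaction at 37 °C with 40 μM ATP and 1.25 μM ATF2; buffer with or without 1% HSA (Method II or I).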

[2] = test system: TNFα release from THP-1 cells; assay: Inhibition of TNFα release from LPS-stimulated THP-1 cells, ELISA; assay type: cell-based; settings: Homo sapiens, read-out: [CELL] THP-1, IC50, TNF ALPHA, ELISA
Excerpt: Compounds of the invention are screened for the ability to inhibit TNFα and IL-1β release from THP-1 cells stimulated with lipopolysaccharide (LPS) in vitro. The ability of compounds to inhibit TNFα and IL-1β release in this in vitro assay is correlated with the inhibition of p38 activity and TNFα and IL-1β expression in vivo, and is therefore an indicator of potential in vivo therapeutic activity (Lee J. C. et al, Ann. N.Y. Acad. Sci. 696: 149-170, 1993 and Nature, 372: 739-746, 1994).
Materials: THP-1 cells from ATCC (TIB202) are maintained at 37° C., 5% CO2 in RPMI 1640 media (available from MediaTech, Herndon, Va.) containing 4.5 g/L glucose, supplemented with 10% fetal bovine serum, 1% penicillin/streptomycin and 50 μM β-mercaptoethanol.
Methods: Test compounds are initially dissolved in RPMI media with 1% DMSO (v/v). Compounds are then serially diluted in RPMI media for all subsequent dilutions. The assay is performed under sterile conditions. THP-1 cells at a culture density of 6-8×10^5 cells/ml are collected and resuspended in the RPMI media at 10^6 cells/ml containing 10% fetal bovine serum, no serum or 1% human serum albumin (HSA). 100 μl of resuspended cells are added to each well, which contain 100 μl of a test compound. Test compounds are prepared at twice the final concentration. Final DMSO concentration is no more than 0.5% (v/v). Cells are preincubated with compound for 30 minutes at 37° C., 5% CO2 prior to stimulation with lipopolysaccharide (LPS) (Sigma L-2880, 4 mg/ml stock in PBS). The final LPS concentration in each well is 10 or 30 μg/ml for TNFα and IL-1β release, respectively. Unstimulated control cell suspensions receive PBS vehicle only. Cell mixtures are incubated for 18 or 48 hours for TNFα and IL-1β prelease, respectively. 150 μl of supernatants are taken and transferred to a fresh plate and stored at −20° C. until further analysis. TNFα and IL-1β levels are measured using ELISA kits from Biosource (Catalog no. KHC3012 for TNFα; KAC1192 for IL-1β). A SpectraMAX 250 is used as the plate reader. Analysis is performed by non-linear regression to generate a dose response curve. The calculated IC50 value is the concentration of the test compound that causes a 50% decrease in TNFα or IL-1β levels.

SMILES	IC50 [1]	IC50 ([2]; THP-1, THP-1 cells)	inhibition at 10 µM [1]	IC50 ([2]; THP-1 cells)
CN(C)c1cccc(C(=O)Nc2ccc(OCCN3CCOCC3)c3ccccc23)c1 [Compound B33]	29.8 µM	> 10 µM		
CN(C)c1ccccc1C(=O)Nc1ccc(OCCN2CCOCC2)c2ccccc12 [Compound B35]	> 100 µM	> 10 µM		
Cc1ccc(C(=O)Nc2ccc(OCCN3CCOCC3)c3ccccc23)cc1Br [Compound B37]	> 100 µM	> 10 µM		
Cc1ccc(N2CCOCC2)cc1C(=O)Nc1ccc(OCCN2CCOCC2)c2ccccc12 [Compound B39, 2-Methyl-5-morpholin-4-yl-N-[4-(2-morpholin-4-yl-ethoxy)-naphthalen-1-yl]-benzamide]	2.46 µM	2.76 µM		
O=C(Nc1ccc(OCCN2CCOCC2)c2ccccc12)c1cc(N2CCOCC2)nc(Cl)n1 [Compound B42, 2-Chloro-6-morpholin-4-yl-pyrimidine-4-carboxylic acid [4-(2-morpholin-4-yl-ethoxy)-naphthalen-1-yl]-amide]	6.34 µM	> 1 µM		
O=C(Nc1ccc(OCCN2CCOCC2)c2ccccc12)c1ccnc(N2CCC3(CC2)OCCO3)c1 [Compound B44, 2-(1,4-Dioxa-8-aza-spiro[4.5]dec-8-yl)-N-[4-(2-morpholin-4-yl-ethoxy)-naphthalen-1-yl]-isonicotinamide]	> 10 µM	1.01 µM		
O=C(Nc1ccc(OCCN2CCOCC2)c2ccccc12)c1cn(Cc2ccccc2)c2ccccc12 [Compound B49]	> 10 µM			> 10 µM
O=C(Nc1ccc(OCCN2CCOCC2)c2ccccc12)c1cccc(Oc2ccccc2)c1 [Compound B61]	2.3 µM	> 10 µM		
O=C(Nc1ccc(OCCN2CCOCC2)c2ccccc12)c1ccc2c(c1)OCCCO2 [Compound B62]	> 10 µM	> 10 µM		
O=C(Nc1ccc(OCCN2CCOCC2)c2ccccc12)c1cccc(N2CCC3CCCCC3C2)n1 (stereo not shown) [Compound B71]	> 10 µM	> 10 µM		
O=C(Nc1ccc(OCCN2CCOCC2)c2ccccc12)c1cccc(-c2cccc(C(F)(F)F)c2)c1 [Compound B88, 3′-Trifluoromethyl-biphenyl-3-carboxylic acid [4-(2-morpholin-4-yl-ethoxy)-naphthalen-1-yl]-amide]	1.85 µM	3.6 µM	59%	
COc1ccccc1-c1cccc(C(=O)Nc2ccc(OCCN3CCOCC3)c3ccccc23)c1 [Compound B90]	1.33 µM	5.25 µM	78%	
COc1cccc(-c2cccc(C(=O)Nc3ccc(OCCN4CCOCC4)c4ccccc34)c2)c1 [Compound B91]	0.9 µM	3.55 µM	78%	
Cc1cccc(-c2cccc(C(=O)Nc3ccc(OCCN4CCOCC4)c4ccccc34)c2)c1 [Compound B104]	0.965 µM	4.44 µM	66%	
COc1cccc(OC)c1-c1cccc(C(=O)Nc2ccc(OCCN3CCOCC3)c3ccccc23)c1 [Compound B108]	> 10 µM	2.26 µM	42%	

Further lines, with some results ahead:

IC50 [1]	IC50 ([2]; THP-1, THP-1 cells)	inhibition at 10 µM [1]	SMILES	IC50 ([2]; THP-1 cells)
10.7 µM	> 10 µM		CN(C)c1ccc(C(=O)Nc2ccc(OCCN3CCOCC3)c3ccccc23)cc1 [Compound B34]	
> 10 µM	> 10 µM		O=C(Nc1ccc(OCCN2CCOCC2)c2ccccc12)c1cc(Br)ccc1Cl [Compound B38]	
2.49 µM	> 10 µM		Cc1ccc(C(=O)Nc2ccc(OCCN3CCOCC3)c3ccccc23)cc1N1CCOCC1 [Compound B40, 4-Methyl-3-morpholin-4-yl-N-[4-(2-morpholin-4-yl-ethoxy)-naphthalen-1-yl]-benzamide]	
> 10 µM	> 10 µM		O=C(Nc1ccc(OCCN2CCOCC2)c2ccccc12)c1cc(N2CCOCC2)ccc1Cl [Compound B41]	
> 10 µM	2.72 µM		O=C(Nc1ccc(OCCN2CCOCC2)c2ccccc12)c1ccnc(N2CCC(O)CC2)c1 [Compound B43, 4-Hydroxy-3,4,5,6-tetrahydro-2 H-[1,2′]bipyridinyl-4′-carboxylic acid [4-(2-morpholin-4-yl-ethoxy)-naphthalen-1-yl]-amide]	
2.12 µM	1.19 µM		O=C(Nc1ccc(OCCN2CCOCC2)c2ccccc12)c1ccnc(N2CCCC2)c1 [Compound B45, N-[4-(2-Morpholin-4-yl-ethoxy)-naphthalen-1-yl]-2-pyrrolidin-1-yl-isonicotinamide]	
> 10 µM	0.685 µM		Cc1nc(C(=O)Nc2ccc(OCCN3CCOCC3)c3ccccc23)cc(N2CCOCC2)n1 [Compound B46]	
> 10 µM	0.843 µM		O=C(Nc1ccc(OCCN2CCOCC2)c2ccccc12)c1cc(N2CCOCC2)nc(N2CCCC2)n1 [Compound B47]	
> 10 µM	> 10 µM		O=C(Nc1ccc(OCCN2CCOCC2)c2ccccc12)c1cccc(CN2CCCCC2)c1 [Compound B55]	
> 10 µM	> 10 µM		Cc1cccc(C(=O)Nc2ccc(OCCN3CCOCC3)c3ccccc23)c1 [Compound B56]	
> 10 µM	> 10 µM		CN1CCN(c2cccc(C(=O)Nc3ccc(OCCN4CCOCC4)c4ccccc34)c2)CC1 [Compound B59]	
> 10 µM	> 10 µM		CC(C)(C)OC(=O)Nc1cccc(C(=O)Nc2ccc(OCCN3CCOCC3)c3ccccc23)c1 [Compound B63]	
	10.7 µM	41.3%	Cc1cccc(C(=O)Nc2ccc(OCCN3CCOCC3)c3ccccc23)c1Cl [Compound B82]	
0.451 µM	2.03 µM	88%	O=C(Nc1ccc(OCCN2CCOCC2)c2ccccc12)c1cccc(-c2ccccc2)c1 [Compound B84, Biphenyl-3-carboxylic acid [4-(2-morpholin-4-yl-ethoxy)-naphthalen-1-yl]-amide]	
3.18 µM	4.03 µM	66%	O=C(Nc1ccc(OCCN2CCOCC2)c2ccccc12)c1ccc2ccccc2c1 [Compound B85]	
4.16 µM	2.71 µM	67%	O=C(Nc1ccc(OCCN2CCOCC2)c2ccccc12)c1cccc(-c2ccncc2)c1 [Compound B86, N-[4-(2-Morpholin-4-yl-ethoxy)-naphthalen-1-yl]-3-pyridin-4-yl-benzamide]	
> 10 µM	5.57 µM	45%	CCCC/C=C/c1cccc(C(=O)Nc2ccc(OCCN3CCOCC3)c3ccccc23)c1 [Compound B99]	
0.744 µM	1.59 µM	86%	O=C(Nc1ccc(OCCN2CCOCC2)c2ccccc12)c1cccc(-c2ccc(F)cc2F)c1 [Compound B100]	
0.864 µM	2.03 µM	87%	O=C(Nc1ccc(OCCN2CCOCC2)c2ccccc12)c1cccc(-c2ccccc2Cl)c1 [Compound B101]	
> 1 µM	6.43 µM	61%	N#Cc1cccc(-c2cccc(C(=O)Nc3ccc(OCCN4CCOCC4)c4ccccc34)c2)c1 [Compound B110]	
3.52 µM	2.1 µM	73.5%	O=C(Nc1ccc(OCCN2CCOCC2)c2ccccc12)c1ccnc(N2CCOCC2)c1 [Compound B122, 2-Morpholin-4-yl-N-[4-(2-morpholin-4-yl-ethoxy)-naphthalen-1-yl]-isonicotinamide]	
